# In patent US11219215B2, “Herbicidal composition comprising cinmethylin and specific inhibitors of protoporphyrinogen oxidase” (BASF Agro B.V., priority 2015, dated 2022):
# Where “and” joins values, the source holds several entries; their conditions need not be identical. Equal entries are not always repeated.
# Columns and labels:
# Format in all cases: in vivo
# [1] = tested on: Avena fatua; assay: Greenhouse preemergence herbicidal activity, AVEFA; settings: 20 DAT
# Procedure: (§1) The containers were irrigated gently to promote germination and growth and subsequently covered with transparent plastic hoods until the plants had rooted.
# (§2) The plants have been cultivated due to their individual requirements at 10-25° C. and 20-35° C.
# (§3) The plants were irrigated due to their necessity.
# (§4) The racemic mixture (±)-2-exo-(2-Methylbenzyloxy)-1-methyl-4-isopropyl-7-oxabicyclo[2.2.1]heptane was used as herbicide A and formulated as emulsifiable concentrates with an active ingredient concentration of 50g/I, 100 g/I or 750 g/I respectively.
# (§5) Flumioxazin (herbicide B.1) was used as a wettable powder (WP) formulation having an active ingredient concentration of 50%.
# (§6) Sulfentrazone (herbicide B.2) was used as a suspension concentrate (SC) having an active ingredient concentration of 480 g/l.
# (§7) In the following experiments, the herbicidal activity for the individual herbicidal compositions (solo and mixture applications) was assessed 20 days after treatment (DAT). […]
# (§8) The value E corresponds to the effect (plant damage or injury) which is to be expected if the activity of the individual compounds is additive. If the observed effect is higher than the value E calculated according to the Colby equation, a synergistic effect is present.
# [2] = tested on: Alopecurus myosuroides; assay: Greenhouse preemergence herbicidal activity, ALOMY; settings: 20 DAT
# Procedure: as §1, §2, §3, §4, §5, §6
# (§9) In the following experiments, the herbicidal activity for the individual herbicidal compositions (solo and mixture applications) was assessed 20 days after treatment (DAT).
# (§10) The evaluation for the damage on undesired weeds caused by the chemical compositions was carried out using a scale from 0 to 100%, compared to the untreated control plants. Here, 0 means no damage and 100 means complete destruction of the plants.
# (§11) E=X+Y−(X·Y/100) where X=effect in percent using herbicide A at an application rate a; • Y=effect in percent using herbicide B at application rate b; • E=expected effect (in %) of herbicide A+herbicide B at application rates a+b.
# as §8
# [3] = tested on: Anthemis arvensis; assay: Greenhouse preemergence herbicidal activity, ANTAR; settings: 20 DAT
# Procedure: as §1, §2, §3, §4, §5, §6, §9, §10, §11, §8
# [4] = tested on: Chenopodium album; assay: Greenhouse preemergence herbicidal activity, CHEAL; settings: 20 DAT
# Procedure: as §1, §2, §3, §4, §5, §6, §7, §8
# [5] = tested on: Galium aparine; assay: Greenhouse preemergence herbicidal activity, GALAP; settings: 20 DAT
# Procedure: as §1, §2, §3, §4, §5, §6, §9, §10, §11, §8
# [6] = tested on: Geranium dissectum; assay: Greenhouse preemergence herbicidal activity, GERDI; settings: 20 DAT
# Procedure: as §1, §2, §3, §4, §5, §6, §9, §10, §11, §8
# [7] = tested on: Lolium multiflorum; assay: Greenhouse preemergence herbicidal activity, LOLMU; settings: 20 DAT
# Procedure: as §1, §2, §3, §4, §5, §6, §9, §10, §11, §8
# [8] = tested on: Polygonum convolvulus; assay: Greenhouse preemergence herbicidal activity, POLCO; settings: 20 DAT
# Procedure: as §1, §2, §3, §4, §5, §6, §9, §10, §11, §8
# [9] = tested on: Sorghum halepense; assay: Greenhouse preemergence herbicidal activity, SORHA; settings: 20 DAT
# Procedure: as §1, §2, §3, §4, §5, §6, §9, §10, §11, §8
# [10] = tested on: Abutilon theophrasti; assay: Greenhouse preemergence herbicidal activity, ABUTH; settings: 20 DAT
# Procedure: as §1, §2, §3, §4, §5, §6, §9, §10, §11, §8
# [11] = tested on: Setaria viridis; assay: Greenhouse preemergence herbicidal activity, SETVI; settings: 20 DAT
# Procedure: as §1, §2, §3, §4, §5, §6, §9, §10, §11, §8
# [12] = tested on: Stellaria media; assay: Greenhouse preemergence herbicidal activity, STEME; settings: 20 DAT
# Procedure: as §1, §2, §3, §4, §5, §6, §9, §10, §11, §8
# [13] = tested on: Digitaria sanguinalis; assay: Greenhouse postemergence herbicidal activity, DIGSA; settings: 20 DAT
# Procedure: (§12) For the post emergence treatment, the plants were first grown to the 2 leaf station (GS 12). Here, the herbicidal compositions were suspended or emulsified in water as distribution medium and sprayed using finely distributing nozzles.
# as §2, §3, §4, §5, §6, §9, §10, §11, §8
# [14] = tested on: Geranium dissectum; assay: Greenhouse postemergence herbicidal activity, GERDI; settings: herbicide A solo 62.5 g ai/ha, 20 DAT
# Procedure: as §12, §2, §3, §4, §5, §6, §7, §8
# [15] = tested on: Setaria viridis; assay: Greenhouse postemergence herbicidal activity, SETVI; settings: 20 DAT
# Procedure: as §12, §2, §3, §4, §5, §6, §7, §8
# [16] = sulfentrazone solo 12.5 g ai/ha
structure (smiles),measurement,setting,value
"Cc1ccccc1CO[C@@H]1C[C@]2(C(C)C)CC[C@@]1(C)O2 (racemic) [herbicide A, (±)-2-exo-(2-Methylbenzyloxy)-1-methyl-4-isopropyl-7-oxabicyclo[2.2.1]heptane]",herbicidal activity,[1]; herbicide A solo 62.5 g ai/ha,40%
same,herbicidal activity,[1]; herbicide A solo 250 g ai/ha,65%
same,herbicidal activity,[2]; herbicide A solo 31.25 g ai/ha,95%
same,herbicidal activity,[2]; herbicide A solo 62.5 g ai/ha,98%
same,herbicidal activity,[3]; herbicide A solo 25 g ai/ha,0%
same,herbicidal activity,[3]; herbicide A solo 31.25 g ai/ha,0%
same,herbicidal activity,[3]; herbicide A solo 62.5 g ai/ha,0%
same,herbicidal activity,[3]; herbicide A solo 125 g ai/ha,20%
same,herbicidal activity,[4]; herbicide A solo 62.5 g ai/ha,45%
same,herbicidal activity,[4]; herbicide A solo 125 g ai/ha,60%
same,herbicidal activity,[5]; herbicide A solo 31.25 g ai/ha,30%
same,herbicidal activity,[5]; herbicide A solo 62.5 g ai/ha,0%
same,herbicidal activity,[5]; herbicide A solo 125 g ai/ha,0%
same,herbicidal activity,[5]; herbicide A solo 200 g ai/ha,30%
same,herbicidal activity,[5]; herbicide A solo 500 g ai/ha,70%
same,herbicidal activity,[6]; herbicide A solo 50 g ai/ha,50%
same,herbicidal activity,[6]; herbicide A solo 62.5 g ai/ha,70% and 80%
same,herbicidal activity,[6]; herbicide A solo 100 g ai/ha,50%
same,herbicidal activity,[6]; herbicide A solo 125 g ai/ha,70%
same,herbicidal activity,[6]; herbicide A solo 250 g ai/ha,70%
same,herbicidal activity,[7]; herbicide A solo 25 g ai/ha,50%
same,herbicidal activity,[7]; herbicide A solo 31.25 g ai/ha,75%
same,herbicidal activity,[7]; herbicide A solo 62.5 g ai/ha,85% and 90%
same,herbicidal activity,[7]; herbicide A solo 125 g ai/ha,90%
same,herbicidal activity,[7]; herbicide A solo 500 g ai/ha,95%
same,herbicidal activity,[8]; herbicide A solo 25 g ai/ha,0%
same,herbicidal activity,[8]; herbicide A solo 50 g ai/ha,0%
same,herbicidal activity,[8]; herbicide A solo 62.5 g ai/ha,0%
same,herbicidal activity,[8]; herbicide A solo 250 g ai/ha,45%
same,herbicidal activity,[9]; herbicide A solo 25 g ai/ha,90%
same,herbicidal activity,[9]; herbicide A solo 62.5 g ai/ha,90%
same,herbicidal activity,[9]; herbicide A solo 125 g ai/ha,95%
same,herbicidal activity,[9]; herbicide A solo 250 g ai/ha,98%
same,herbicidal activity,[10]; herbicide A solo 50 g ai/ha,0%
same,herbicidal activity,[10]; herbicide A solo 100 g ai/ha,0%
same,herbicidal activity,[11]; herbicide A solo 25 g ai/ha,75%
same,herbicidal activity,[11]; herbicide A solo 31.25 g ai/ha,95%
same,herbicidal activity,[12]; herbicide A solo 25 g ai/ha,20%
same,herbicidal activity,[12]; herbicide A solo 50 g ai/ha,20%
same,herbicidal activity,[12]; herbicide A solo 62.5 g ai/ha,45%
same,herbicidal activity,[13]; herbicide A solo 62.5 g ai/ha,60%
same,herbicidal activity,[13]; herbicide A solo 125 g ai/ha,65%
same,herbicidal activity,[13]; herbicide A solo 250 g ai/ha,80%
same,herbicidal activity,[14],75%
same,herbicidal activity,[15]; herbicide A solo 62.5 g ai/ha,40%
same,herbicidal activity,[15]; herbicide A solo 125 g ai/ha,60%
"Cc1nn(-c2cc(NS(C)(=O)=O)c(Cl)cc2Cl)c(=O)n1C(F)F [sulfentrazone, 2′,4′-dichloro-5′-(4-difluoromethyl-4,5-dihydro-3-methyl-5-oxo-1H-1,2,4-triazol-1-yl)methanesulfonanilide]",herbicidal activity,[2]; sulfentrazone solo 25 g ai/ha,35%
same,herbicidal activity,[3]; [16],40%
same,herbicidal activity,[3]; sulfentrazone solo 25 g ai/ha,85%
same,herbicidal activity,[5]; sulfentrazone solo 100 g ai/ha,98%
same,herbicidal activity,[6]; sulfentrazone solo 25 g ai/ha,50%
same,herbicidal activity,[7]; [16],0%
same,herbicidal activity,[7]; sulfentrazone solo 100 g ai/ha,80%
same,herbicidal activity,[8]; [16],20%
same,herbicidal activity,[8]; sulfentrazone solo 25 g ai/ha,90%
same,herbicidal activity,[9]; [16],0%
same,herbicidal activity,[9]; sulfentrazone solo 100 g ai/ha,80%
same,herbicidal activity,[10]; sulfentrazone solo 25 g ai/ha,65%
same,herbicidal activity,[10]; sulfentrazone solo 50 g ai/ha,65%
same,herbicidal activity,[11]; [16],0%
same,herbicidal activity,[11]; sulfentrazone solo 25 g ai/ha,65%
same,herbicidal activity,[12]; [16],0%
same,herbicidal activity,[12]; sulfentrazone solo 25 g ai/ha,20%
same,herbicidal activity,[12]; sulfentrazone solo 50 g ai/ha,40%
